Measurements as given in the supplement of paper PMC13380429.

Columns and labels:
Settings in all cases: 72 h
Vero E6 [1] = test: cell viability relative to DMSO; higher = less toxic
U2OS [2] = test: as above
Calu-3 [3] = test: as above
HepG2 [4] = test: as above
Caco-2 [5] = test: as above
Vero E6 [6] = test: drug sensitivity score (DSS) for viability; higher = more toxic; extreme values may be limits of the assay
U2OS [7] = test: as above
Calu-3 [8] = test: as above
HepG2 [9] = test: as above
Caco-2 [10] = test: as above
Vero E6 [11] = test: relative viability EC50 (midpoint between 100% and the lowest measured viability); higher = less toxic
U2OS [12] = test: as above
Calu-3 [13] = test: as above
HepG2 [14] = test: as above
Caco-2 [15] = test: as above

Structure (SMILES) | cell viability (Vero E6 [1]; 1 nM) [%] | cell viability (Vero E6 [1]; 10 nM) [%] | cell viability (Vero E6 [1]; 100 nM) [%] | cell viability (Vero E6 [1]; 1000 nM) [%] | cell viability (Vero E6 [1]; 10000 nM) [%] | cell viability (U2OS [2]; 1 nM) [%] | cell viability (U2OS [2]; 10 nM) [%] | cell viability (U2OS [2]; 100 nM) [%] | cell viability (U2OS [2]; 1000 nM) [%] | cell viability (U2OS [2]; 10000 nM) [%] | cell viability (Calu-3 [3]; 1 nM) [%] | cell viability (Calu-3 [3]; 10 nM) [%] | cell viability (Calu-3 [3]; 100 nM) [%] | cell viability (Calu-3 [3]; 1000 nM) [%] | cell viability (Calu-3 [3]; 10000 nM) [%] | cell viability (HepG2 [4]; 1 nM) [%] | cell viability (HepG2 [4]; 10 nM) [%] | cell viability (HepG2 [4]; 100 nM) [%] | cell viability (HepG2 [4]; 1000 nM) [%] | cell viability (HepG2 [4]; 10000 nM) [%] | cell viability (Caco-2 [5]; 1 nM) [%] | cell viability (Caco-2 [5]; 10 nM) [%] | cell viability (Caco-2 [5]; 100 nM) [%] | cell viability (Caco-2 [5]; 1000 nM) [%] | cell viability (Caco-2 [5]; 10000 nM) [%] | drug sensitivity score (Vero E6 [6]) | drug sensitivity score (U2OS [7]) | drug sensitivity score (Calu-3 [8]) | drug sensitivity score (HepG2 [9]) | drug sensitivity score (Caco-2 [10]) | relative viability EC50 (Vero E6 [11]) [µM] | relative viability EC50 (U2OS [12]) [µM] | relative viability EC50 (Calu-3 [13]) [µM] | relative viability EC50 (HepG2 [14]) [µM] | relative viability EC50 (Caco-2 [15]) [µM]
O=C(OCCN1CCCCC1)c1c[nH]c2ccccc12 | 98.7 | 95.6 | 95.4 | 95.8 | 104 | 96.8 | 104 | 97.6 | 102 | 94.3 | 106 | 104 | 97.7 | 103 | 91.3 | 102 | 93.8 | 98.2 | 106 | 94.4 | 99.3 | 97.2 | 95.3 | 96.3 | 99.4 | 0 | 0 | 0 | 0 | 0 | > 10 | > 10 | > 10 | > 10 | > 10
O=C(O)[C@H]1CCCN(CCC=C(c2ccccc2)c2ccccc2)C1 (racemic) | 99.6 | 100 | 101 | 102 | 103 | 98.6 | 98.2 | 98.1 | 102 | 91.3 | 96.8 | 98.5 | 111 | 90.9 | 111 | 107 | 94.5 | 83.9 | 108 | 99.2 | 95.9 | 98.7 | 102 | 95.7 | 94.9 | 0 | 0 | 0 | 0 | 0 | > 10 | > 10 | > 10 | > 10 | > 10
CN1CCc2cc(Cl)c(O)cc2[C@@H](c2ccccc2)C1 | 95.6 | 95 | 93.5 | 85.1 | 102 | 97.5 | 100 | 97.8 | 102 | 101 | 93.3 | 103 | 145 | 103 | 97.9 | 98.2 | 96.3 | 97.2 | 97.4 | 89.9 | 96.3 | 93.2 | 96.3 | 100 | 99.1 | 0 | 0 | 0 | 0 | 0 | > 10 | > 10 | > 10 | > 10 | > 10
CC(C)c1ccccc1Cc1cc(C(=O)Nc2ccc(S(=O)(=O)c3ccccc3C(C)(C)C)cc2)c(O)c(O)c1O [TW-37] | 92.1 | 102 | 96.1 | 43.2 | 7.7 | 102 | 94.7 | 95.7 | 36.5 | 4.6 | 107 | 98.1 | 107 | 86 | 28.8 | 98.8 | 98.6 | 96.1 | 49.6 | 20.3 | 88.7 | 89.7 | 93.5 | 36.7 | 9.2 | 12 | 13 | 6.2 | 10.6 | 13.1 | 0.746 | 0.654 | 1.75 | 0.704 | 0.557
N#Cc1ccc(-c2ccc(S(=O)(=O)Nc3cccc(N)n3)cc2)cc1 | 97.4 | 96.3 | 95.9 | 93.9 | 90.8 | 101 | 97.2 | 101 | 99.4 | 95.1 | 99.6 | 104 | 98.9 | 107 | 104 | 100 | 98.3 | 104 | 97.6 | 79 | 87.9 | 95.5 | 95.4 | 96.7 | 91 | 0 | 0 | 0 | 1 | 0 | > 10 | > 10 | > 10 | > 10 | > 10
CCCCCNCC(N)=O [milacemide] | 99.9 | 105 | 104 | 97.3 | 101 | 103 | 100 | 98.3 | 101 | 98.6 | 108 | 113 | 107 | 99.6 | 95 | 109 | 97.9 | 95.2 | 94.6 | 110 | 100 | 90.8 | 91.4 | 99.6 | 95.5 | 0 | 0 | 0 | 0 | 0 | > 10 | > 10 | > 10 | > 10 | > 10
CC(C)c1ccc2oc3nc(N)c(C(=O)O)cc3c(=O)c2c1 [amlexanox] | 96.6 | 99.8 | 98.4 | 102 | 106 | 97.1 | 94.3 | 100 | 96.4 | 99.8 | 92.3 | 87.4 | 104 | 101 | 99.5 | 96.7 | 101 | 99.9 | 109 | 113 | 94 | 95.9 | 99.8 | 89.8 | 108 | 0 | 0 | 0 | 0 | 0 | > 10 | > 10 | > 10 | > 10 | > 10
CNC(=O)c1cc(COc2nnc(Nc3ccc(Cl)cc3)c3ccoc23)ccn1 [telatinib] | 92.7 | 95.5 | 92.1 | 93.3 | 102 | 101 | 97.6 | 101 | 98 | 92.4 | 106 | 106 | 98.8 | 96.6 | 104 | 85.9 | 106 | 97.7 | 101 | 114 | 96.6 | 95.4 | 99.3 | 97.2 | 98.8 | 0 | 0 | 0 | 0 | 0 | > 10 | > 10 | > 10 | > 10 | > 10
CC(CCc1ccccc1)NCC(O)c1ccc(O)c(C(N)=O)c1 (stereo not given) [labetalol] | 97.3 | 97.2 | 96.3 | 92 | 103 | 97.6 | 105 | 98.6 | 101 | 99.7 | 98.7 | 107 | 94.8 | 103 | 101 | 105 | 100 | 102 | 90.5 | 99.6 | 88.3 | 85.3 | 89.4 | 91.2 | 110 | 0 | 0 | 0 | 0 | 0 | > 10 | > 10 | > 10 | > 10 | > 10
NC(=O)c1cccc(-c2cc(Nc3ccc(OC(F)(F)F)cc3)ncn2)c1 [GNF-2] | 104 | 99 | 94.6 | 106 | 102 | 103 | 99.2 | 99.1 | 102 | 103 | 104 | 103 | 97.9 | 90.3 | 86.6 | 108 | 99.6 | 93.4 | 96.4 | 77.3 | 102 | 102 | 104 | 87.1 | 83.7 | 0 | 0 | 0.5 | 1.3 | 1.3 | > 10 | > 10 | > 10 | > 10 | > 10
c1cc2c(cc1[C@H]1OC[C@H]3[C@@H]1CO[C@@H]3c1ccc3c(c1)OCO3)OCO2 [sesamin] | 99.8 | 103 | 94.6 | 99.3 | 99.4 | 96.9 | 100 | 102 | 104 | 99.3 | 109 | 103 | 102 | 98.1 | 90.1 | 105 | 107 | 102 | 91.1 | 106 | 93.7 | 95 | 98.4 | 95.7 | 89.2 | 0 | 0 | 0 | 0 | 0 | > 10 | > 10 | > 10 | > 10 | > 10
Cc1cc(C)cc(NC(=O)Nc2ccc(OS(N)(=O)=O)cc2)c1 [S4] | 102 | 103 | 103 | 103 | 96.6 | 102 | 96.9 | 100 | 98.1 | 99 | 104 | 104 | 92.7 | 100 | 89.5 | 107 | 99.3 | 104 | 108 | 97.2 | 105 | 97.6 | 99.3 | 87.4 | 101 | 0 | 0 | 0 | 0 | 0 | > 10 | > 10 | > 10 | > 10 | > 10
COc1ccc(C(CN(C)C)C2(O)CCCCC2)cc1 (stereo not given) [venlafaxine] | 99.2 | 100 | 84.1 | 92.9 | 101 | 97.1 | 91.5 | 102 | 97.4 | 102 | 104 | 99.9 | 95.6 | 99.9 | 107 | 108 | 112 | 95.8 | 93.2 | 107 | 110 | 87.5 | 125 | 127 | 82 | 0 | 0 | 0 | 0 | 0.2 | > 10 | > 10 | > 10 | > 10 | > 10
OC(CCN1CCCCC1)(c1ccccc1)c1ccccc1 [pridinol] | 99.8 | 103 | 100 | 93.8 | 98.5 | 99.5 | 102 | 93.7 | 93.5 | 100 | 97.8 | 96.9 | 91.7 | 99.4 | 93.2 | 101 | 95.3 | 101 | 106 | 106 | 96.9 | 108 | 97.9 | 94.9 | 99 | 0 | 0 | 0 | 0 | 0 | > 10 | > 10 | > 10 | > 10 | > 10
